This note sets out measurements from PMC7018972, “Novel and selective inactivators of Triosephosphate isomerase with anti-trematode activity” (Scientific Reports, 2020).

Experiment [1] deals with newly excysted juvenile (NEJ) F. hepatica. The experiment can be described thus: In vitro NEJ treatment. In kind it is cell-based, Fasciola hepatica. The conditions noted are these: Fasciola hepatica, NEJ. Here is the method: F. hepatica metacercariae were acquired from DILAVE, MGAP, Uruguay. NEJ were obtained by in vitro excystement as previously described with minor modifications. Briefly, metacercariae were incubated with 1% sodium hypochlorite for 5 min at room temperature to remove the outer cyst wall and then washed exhaustively with PBS 200 U/mL Penicillin G sulfate, […] streptomycin sulfate, 500 ng/mL amphotericin B, 10 mM HEPES, counted and divided into groups of around 20 parasites that were transferred to 12 wells tissue culture plates. Parasites were maintained at 37 °C, 5% CO2 in modified Basch’s medium. At day 1, compounds were added at the indicated concentrations and 0.5% DMSO was added to control groups; each condition was tested in duplicate. NEJ behavior was monitored under a light microscope (Olympus BX41), every day each well was recorded for a minute in order to assess parasite motility and registered using the following score: 3- normally active; 2- reduced activity (sporadic movement); 1- immotile (dead)[48].

Experiment [2] deals with Fasciola hepatica TIM (FhTIM) (Fasciola hepatica, UniProt S4UI50). Kind of experiment: Inhibition of recombinant FhTIM, coupled enzyme assay. In kind it is biochemical. The method in brief: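 E. coli-expressed FhTIM preincubated with compound 1 h at 37 °C in 100 mM triethanolamine, 10 mM EDTA, pH 7.4, 10% DMSO. Aliquot diluted into coupled assay (1 mM glyceraldehyde-3-phosphate, 0.2 mM NADH, α-glycerol phosphate dehydrogenase, pH 7.4) with NADH decrease at 340 nm, 38 °C. Triplicate, two independent experiments.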

For a further experiment, the system named is S. mansoni somules. The experiment can be described thus: S. mansoni somules phenotypic screen in vitro. The format is cell-based, Schistosoma mansoni. Conditions: Table 2S, 10 uM. An excerpt:
The NMRI isolate of S. mansoni was maintained by passage through Biomphalaria glabrata snails and 3–5 week-old, female Golden Syrian hamsters (Charles River, San Diego, CA) as intermediate and definite hosts, respectively. A dose of 600 infective larvae (cercariae) was used to infect hamsters. The acquisition, preparation and in vitro maintenance of S. mansoni post-infective larvae (schistosomula or somules) and adults have been already described[5],[50],[51]. Vertebrate animal maintenance and handling at the University of California San Diego Animal Care Facility were in accordance with protocols approved by the university’s Institutional Animal Care and Use Committee (IACUC).
Phenotypic screens with somules were performed as described[5],[50],[51]. Initially, 100 μL Basch medium, 100 U/ml penicillin, […] streptomycin, 4% heat-inactivated FBS (Corning Mediatech) and 1 μl compound in DMSO were added to clear, 96-well round-bottomed plates (Costar cat.# 3367). Then, 100 μL of the same medium containing 40–50 somules was added to mix the compound with somules (final concentration of DMSO was 0.5%). Assay plates were placed into plastic boxes humidified with wet tissue and then incubated at 37 °C in a 5% CO2 environment. Somules phenotypes were recorded every 24 h up to 72 h using an inverted microscope (Zeiss Axiovert 40 C).
Schistosome phenotypic responses were recorded employing a series of ‘descriptors,’ such as rounding, degeneration, overactivity, loss of translucency and changes in motility, as described previously[5],[50],[51],[53]. To allow for comparisons of compound activity, each descriptor was awarded a value of 1 and these were added up to a maximum ‘severity score’ of 4. Evidence of degeneracy or death was awarded the maximum score of 4. Scores were averaged across duplicate wells for each compound (see details in the supporting information).

[3] abbreviates: Table 1S, screening of 340 compounds in FhTIM, table head prints no unit, µM per b8/b9, read-out: IC50.
Where [4] appears, read: recombinant FhTIM, 1 h incubation with compound at 37 °C, read-out: IC50.
[5] abbreviates: Figure 1, ranges of inhibitory activity, read-out: IC50 range.

Read-outs that look alike come from different tables or passages of the source. Where only a bound is given, the exact number is not on record here.

Fasciola hepatica TIM (FhTIM), sequence (S4UI50 entry or part of it): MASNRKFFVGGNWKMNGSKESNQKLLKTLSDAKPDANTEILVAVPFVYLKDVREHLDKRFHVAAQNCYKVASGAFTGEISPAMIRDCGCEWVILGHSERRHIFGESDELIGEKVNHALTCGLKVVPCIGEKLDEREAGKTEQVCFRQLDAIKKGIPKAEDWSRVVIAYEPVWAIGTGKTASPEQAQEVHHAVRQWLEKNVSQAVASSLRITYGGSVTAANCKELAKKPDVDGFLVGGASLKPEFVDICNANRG

As a reminder, the IC50 is the concentration that gives 50% inhibition. On to `COc1cc(/C=C/C(=O)CC(=O)/C=C/c2ccc(O)c(OC)c2)ccc1O` [Compound 906], for which the IC50 in experiment [1] (incubation time 4 h) is 7 ± 1 µM; in experiment [2] (IC50 (µM), recombinant FhTIM, 1 h incubation with compound at 37 °C) it was 35 ± 4 µM; in experiment [2] (IC50 range, Figure 1, ranges of inhibitory activity), less than 50 µM.
`CS(=O)(=O)c1nc2cc(Oc3cccc(Cl)c3Cl)c(Cl)cc2[nH]1` [Compound 1293, 6-chloro-5-(2,3-dichlorophenoxy)-2-(methylsulfonyl)-1H-benzo[d]imidazole, reference compound] displayed an IC50 in experiment [1] (incubation time 48 h) of 50 µM.
As for `C=CCNC(=S)NN=CC=Cc1ccc(C)o1` [Compound 263], the IC50 in experiment [2] (setting [3]) was greater than 100 µM.
`[O-][n+]1onc2ccc(C=Cc3ccc4nonc4c3)cc21` [Compound 12]: the IC50 in experiment [2] (setting [3]) was greater than 100 µM.
Still for that read-out and setting: as for `Nc1ccc([N+](=O)[O-])cc1` [Compound 1196], the figure is greater than 100 µM; as for `C=CCN1C(=O)CSC1=NN=Cc1ccc(Cl)cc1` [Compound 260], greater than 100 µM.
On the same count and under the same terms, next, `C=CCn1c(C(=O)O)csc1=NN=C/C=C/c1ccc(C)o1` [Compound 789]: greater than 100 µM; `C=CCn1c(-c2csc(=NN=Cc3ccccc3)n2-c2ccccc2)csc1=NN=Cc1ccc2ccccc2c1` [Compound 783]: greater than 100 µM.
On the same count and under the same terms, as for `O=C1CCCC2=C1C(c1ccc(C(=O)O)cc1)c1ccc3ccccc3c1N2` (centres unmarked) [Compound 698], the figure is greater than 100 µM; as for `NC1=NS(=O)(=O)N(CCC2CCCCC2)c2nc(-c3ccc(F)cc3)[nH]c21` [Compound 706], greater than 100 µM.
With `Brc1ccc(-c2c[se]c(=NN=CC=Cc3ccccc3)n2CCN2CCOCC2)cc1` [Compound 1222], in experiment [2] (setting [3]), the 50% inhibitory concentration (IC50) lay within 50 to 100 µM.
In the case of `CC(C)OC(CC[P+](c1ccccc1)(c1ccccc1)c1ccccc1)OC(C)C` [Compound 497], the IC50 in experiment [2] (setting [3]) was greater than 100 µM.
Same read-out and setting: next, `Cc1ccc(/C=C/C=C/C(=O)/C=C/C=C/c2ccc(C)o2)o1` [Compound 1108]: greater than 100 µM.
Consider `S=C(NN=CC=CC=Cc1cccs1)Nc1ccccc1` [Compound 310], for which the IC50 is 50 to 100 µM in experiment [2] (setting [3]) and 79 ± 7 µM in experiment [2] (setting [4]).
On to `CC1(C)[N+]([O-])=c2ccc(C3OCCO3)cc2=[N+]1[O-]` [Compound 105], for which, in experiment [2] (setting [3]), the IC50 is greater than 100 µM.
The same measure, in the same setting: as for `O=Cc1ccc2no[n+]([O-])c2c1` [Compound 38], the figure is greater than 100 µM; as for `C=CCN1C(=O)CSC1=NN=Cc1ccc([N+](=O)[O-])s1` [Compound 129], greater than 100 µM.
Consider `O=[N+]([O-])c1c(Cl)cc2c(no[n+]2[O-])c1N1CCN(c2c([N+](=O)[O-])c(Cl)cc3c2no[n+]3[O-])CC1` [Compound 704], for which, in experiment [2] (setting [3]), the half-maximal inhibitory concentration (IC50) is greater than 100 µM.
The same measure, in the same setting: as for `O=C1CSC(=NN=CC=Cc2ccco2)N1c1ccccc1` [Compound 282], the figure is greater than 100 µM; as for `ON=Cc1ccc(Br)cc1` [Compound 1107], greater than 100 µM; as for `CN1CC(=CC=Cc2cccs2)C(=O)C(=CC=Cc2cccs2)C1` [Compound 1285], greater than 100 µM.
Regarding `O=C(C=Cc1ccc2ccccc2c1)c1c(O)ccc2ccccc12` [Compound 1254], the IC50 in experiment [2] (setting [4]) stood at 50 ± 5 µM. Also, the “SOMULES SEVERITY SCORE” value with S. mansoni somules (24 h) stood at 0; with S. mansoni somules (48 h), 2; with S. mansoni somules (3d), 0.
Consider `C=CCn1c(-c2ccc([N+](=O)[O-])cc2)csc1=NN=Cc1ccc([N+](=O)[O-])s1` [Compound 146], for which, in experiment [2] (setting [3]), the IC50 is greater than 100 µM.
For `O=C1C(=Cc2ccc([N+](=O)[O-])o2)C(=O)N(Cc2ccccc2)S(=O)(=O)N1Cc1ccccc1` [Compound 116], the IC50 in experiment [1] (incubation time 72 h) was greater than 50 µM; in experiment [2] (setting [5]), less than 50 µM; in experiment [2] (setting [3]) it was less than 25 µM; in experiment [2] (setting [4]), 5 ± 1 µM.
As for `C=CCNC(=S)NN=Cc1ccc(Cl)cc1` [Compound 261], the IC50 in experiment [2] (setting [3]) is greater than 100 µM.
For the compound `Clc1ccc(-c2c[se]c(=NN=CC=Cc3ccco3)n2CCN2CCOCC2)cc1` [Compound 1097], the IC50 in experiment [2] (Table 1S, screening of 340 compounds in FhTIM, table head prints no unit, µM per b8/b9) was in the range of 50 to 100 µM.
Consider `CCOC(=O)c1nc2ccc([N+](=O)[O-])cc2n1OC(=O)OCC(C)C` [Compound 545], for which the IC50 in experiment [2] (setting [3]) amounted to 100 µM.
On the same count and under the same terms, next, `CN(C/C=C/c1ccccc1)CCOCCn1nc(OCc2ccccc2)c2cc([N+](=O)[O-])ccc21` [Compound 508]: greater than 100 µM; `N#Cc1c2ccccc2[n+]([O-])n1-c1ccc2ccccc2c1` [Compound 202]: greater than 100 µM.
Take `[O-][n+]1c2ccc(O)cc2[n+]([O-])c2cc(Cl)c(Cl)cc21` [Compound 183]: the IC50 in experiment [2] (setting [5]) was less than 50 µM; in experiment [2] (setting [4]), 25 ± 3 µM.
In the case of `CCOC(=O)c1n(Cc2ccc(N(C)C)cc2)c2ccc([N+](=O)[O-])cc2[n+]1[O-]` [Compound 553], in experiment [2] (setting [3]), the half-inhibitory concentration (IC50) is greater than 100 µM.
For the compound `C=CCNC(=S)NN=Cc1ccc2c(c1)[n+]([O-])c(C(=O)Nc1ccccc1)c(C)[n+]2[O-]` [Compound 490], the 50% inhibitory concentration (IC50) in experiment [2] (setting [3]) was greater than 100 µM. In addition, the “SOMULES SEVERITY SCORE” value in the experiment on S. mansoni somules (24 h), in the experiment with S. mansoni somules (48 h) and with S. mansoni somules (3d) was 0 in each case.
On to `CCOC(=O)c1nc2ccc([N+](=O)[O-])cc2n1O` [Compound 546], for which, in experiment [2] (setting [3]), the 50% inhibitory concentration (IC50) was greater than 100 µM.
Still for that read-out and setting: next, `Cc1ccc2c(c1)nc(-c1ccc(N(C)C)cc1)n2CCc1ccccc1` [Compound 696]: greater than 100 µM; `C=CCn1c(-c2csc(=NN=Cc3cccs3)n2CC=C)csc1=NN=Cc1cccs1` [Compound 288]: greater than 100 µM.
Take `ON=Cc1ccc(O)cc1` [Compound 1113]: the IC50 in experiment [2] (setting [3]) is greater than 100 µM.
On the same count and under the same terms, as for `CC(=NNC(N)=O)c1cccc(C(C)=NNC(N)=O)n1` [Compound 701], the figure is greater than 100 µM; as for `O=C(C=Cc1cccc2ccccc12)c1ccccc1` [Compound 1266], greater than 100 µM.
With `Nc1ccc2nc3ccc(F)cc3nc2c1` [Compound 1149], the IC50 in experiment [2] (setting [4]) was determined as 50 ± 6 µM.
As for `O=C1C(=C2Nc3ccccc3C2=O)Nc2ccccc21` [Compound 879], the IC50 in experiment [2] (setting [3]) is greater than 100 µM.
The same measure, in the same setting: as for `C=CCNC(=S)NN=CC=Cc1ccccc1` [Compound 300], the figure is greater than 100 µM.
Still for that read-out and setting: as for `C=CCNC(=S)NN=C(C=CC=Cc1ccc(C)o1)C=CC=Cc1ccc(C)o1` [Compound 900], the figure is greater than 100 µM; as for `O=C(C(O)c1ccccc1)C(O)c1ccccc1` (centres unmarked) [Compound 1083], greater than 100 µM; as for `CCCCOC(=O)c1nc2ccc([N+](=O)[O-])cc2n1O` [Compound 550], greater than 100 µM.
For the compound `C=CCn1c(-c2ccccc2)csc1=NN=Cc1cccs1` [Compound 272], the concentration for half-maximal inhibition (IC50) in experiment [2] (setting [3]) was greater than 100 µM.
Still for that read-out and setting: as for `[O-][n+]1onc(-c2ccccc2)c1CN1CCOCC1` [Compound 352], the figure is greater than 100 µM; as for `O=C1CCCC2=C1C(c1cccc(Br)c1)c1ccc3ccccc3c1N2` (centres unmarked) [Compound 699], greater than 100 µM.
The same measure, in the same setting: as for `C=CCn1c(-c2ccccc2)csc1=NN=CC=Cc1ccco1` [Compound 276], the figure is greater than 100 µM.
Same read-out and setting: as for `C=CCn1c(-c2ccc(OC)cc2)csc1=NN=CC=Cc1ccco1` [Compound 871], the figure is greater than 100 µM; as for `[O-][n+]1onc2ccc(C=NNC(=S)Nc3ccccc3)cc21` [Compound 41], greater than 100 µM; as for `CCOC(=O)c1cc2c(n1CC)C(=O)C(Oc1ccc(Cl)cc1)=CC2=O` [Compound 1129], greater than 100 µM.
Regarding `C=CCn1c(-c2ccccc2)csc1=NN=Cc1ccc2ccccc2c1` [Compound 908], the half-maximal inhibitory concentration (IC50) in experiment [2] (setting [3]) lay in the range of 50 to 100 µM.
Take `O=C1C(=Cc2ccc([N+](=O)[O-])cc2)C(=O)N(Cc2ccccc2)S(=O)(=O)N1Cc1ccccc1` [Compound 111]: the half-maximal inhibitory concentration (IC50) in experiment [2] (setting [5]) was less than 50 µM; in experiment [2] (setting [3]), less than 25 µM.
Regarding `Cc1c(C(=O)NN=Cc2ccccc2)no[n+]1[O-]` [Compound 824], the half-inhibitory concentration (IC50) in experiment [2] (setting [3]) is greater than 100 µM.
